Experimental data from ChEMBL document CHEMBL4507278 (2021).

How the values were obtained:
[1] = test system: Tyrosine-protein kinase ABL1 (Homo sapiens), P00519 [F317I]; conditions: Compound concentration 1000.0 nM
[2] = biological target: Calcium/calmodulin-dependent protein kinase type II subunit gamma (Homo sapiens) (UniProt Q13555); conditions: Compound concentration 1000.0 nM
[3] = biological target: Cyclin-dependent kinase 4 (Homo sapiens) (UniProt P11802); conditions: Compound concentration 1000.0 nM
Sequence of Cyclin-dependent kinase 4 (Homo sapiens) (P11802 whole entry): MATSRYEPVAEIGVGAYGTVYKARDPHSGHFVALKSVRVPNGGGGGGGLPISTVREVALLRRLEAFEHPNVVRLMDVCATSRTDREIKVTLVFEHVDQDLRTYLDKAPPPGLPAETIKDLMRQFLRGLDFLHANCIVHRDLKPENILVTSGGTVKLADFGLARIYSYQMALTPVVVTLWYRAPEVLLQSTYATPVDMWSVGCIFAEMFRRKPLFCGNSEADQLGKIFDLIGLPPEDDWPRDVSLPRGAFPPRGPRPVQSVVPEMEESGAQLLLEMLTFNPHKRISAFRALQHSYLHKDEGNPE

[4] = biological target: Cyclin-dependent kinase 7 (Homo sapiens) (UniProt P50613); conditions: Compound concentration 1000.0 nM
[5] = biological target: Casein kinase I isoform gamma-1 (Homo sapiens) (UniProt Q9HCP0); conditions: Compound concentration 1000.0 nM
[6] = biological target: Epithelial discoidin domain-containing receptor 1 (Homo sapiens) (UniProt Q08345); conditions: Compound concentration 1000.0 nM
[7] = biological target: Serine/threonine-protein kinase 17B (Homo sapiens) (UniProt O94768); conditions: Compound concentration 1000.0 nM
Sequence of Serine/threonine-protein kinase 17B (Homo sapiens) (O94768 whole entry): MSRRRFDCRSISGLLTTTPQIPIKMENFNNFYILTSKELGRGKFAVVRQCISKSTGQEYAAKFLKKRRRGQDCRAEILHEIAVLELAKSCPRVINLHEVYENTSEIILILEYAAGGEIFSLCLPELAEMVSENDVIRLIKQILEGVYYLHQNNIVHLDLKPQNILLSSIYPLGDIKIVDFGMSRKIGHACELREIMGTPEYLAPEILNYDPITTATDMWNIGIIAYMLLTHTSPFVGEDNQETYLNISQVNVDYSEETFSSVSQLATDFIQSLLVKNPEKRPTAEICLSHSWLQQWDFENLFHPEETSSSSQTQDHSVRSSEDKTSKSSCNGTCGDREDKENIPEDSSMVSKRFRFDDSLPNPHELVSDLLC

[8] = test system: Epidermal growth factor receptor (Homo sapiens), P00533 [UNDEFINED MUTATION]; conditions: Compound concentration 1000.0 nM
[9] = biological target: Ephrin type-A receptor 2 (Homo sapiens) (UniProt P29317); conditions: Compound concentration 1000.0 nM
[10] = biological target: Mitogen-activated protein kinase 4 (Homo sapiens) (UniProt P31152); conditions: Compound concentration 1000.0 nM
[11] = biological target: Tyrosine-protein kinase Fes/Fps (Homo sapiens) (UniProt P07332); conditions: Compound concentration 1000.0 nM
Sequence of Tyrosine-protein kinase Fes/Fps (Homo sapiens) (P07332 whole entry): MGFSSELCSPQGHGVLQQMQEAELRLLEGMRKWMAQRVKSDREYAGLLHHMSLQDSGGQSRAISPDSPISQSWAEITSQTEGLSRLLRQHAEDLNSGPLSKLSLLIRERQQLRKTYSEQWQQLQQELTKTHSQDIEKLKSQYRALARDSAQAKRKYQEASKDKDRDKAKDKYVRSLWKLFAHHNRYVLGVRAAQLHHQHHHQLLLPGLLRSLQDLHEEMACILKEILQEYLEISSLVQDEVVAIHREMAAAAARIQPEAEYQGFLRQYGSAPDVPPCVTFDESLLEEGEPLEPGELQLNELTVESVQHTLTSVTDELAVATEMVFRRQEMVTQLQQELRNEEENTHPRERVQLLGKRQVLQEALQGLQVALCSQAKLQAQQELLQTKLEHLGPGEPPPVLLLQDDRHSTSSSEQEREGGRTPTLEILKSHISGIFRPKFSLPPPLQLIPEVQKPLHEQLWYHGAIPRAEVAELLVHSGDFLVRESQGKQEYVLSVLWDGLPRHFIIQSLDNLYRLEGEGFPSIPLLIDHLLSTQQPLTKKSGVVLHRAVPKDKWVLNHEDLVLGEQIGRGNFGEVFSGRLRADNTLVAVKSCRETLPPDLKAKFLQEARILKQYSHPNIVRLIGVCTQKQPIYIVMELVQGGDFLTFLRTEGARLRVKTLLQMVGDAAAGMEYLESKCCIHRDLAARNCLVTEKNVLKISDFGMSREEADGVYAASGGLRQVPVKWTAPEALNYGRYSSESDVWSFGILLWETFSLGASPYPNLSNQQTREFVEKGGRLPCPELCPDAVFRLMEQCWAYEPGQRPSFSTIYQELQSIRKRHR

[12] = test system: Receptor-type tyrosine-protein kinase FLT3 (Homo sapiens), P36888 [UNDEFINED MUTATION]; conditions: Compound concentration 1000.0 nM
[13] = biological target: G protein-coupled receptor kinase 4 (Homo sapiens) (UniProt P32298); conditions: Compound concentration 1000.0 nM
[14] = biological target: Mast/stem cell growth factor receptor Kit (Homo sapiens) (UniProt P10721); conditions: Compound concentration 1000.0 nM
[15] = biological target: Mitogen-activated protein kinase kinase kinase 3 (Homo sapiens) (UniProt Q99759); conditions: Compound concentration 1000.0 nM
[16] = biological target: Microtubule-associated serine/threonine-protein kinase 1 (Homo sapiens) (UniProt Q9Y2H9); conditions: Compound concentration 1000.0 nM
[17] = biological target: Serine/threonine-protein kinase 3 (Homo sapiens) (UniProt Q13188); conditions: Compound concentration 1000.0 nM
[18] = biological target: Serine/threonine-protein kinase Nek10 (Homo sapiens) (UniProt Q6ZWH5); conditions: Compound concentration 1000.0 nM
Sequence of Serine/threonine-protein kinase Nek10 (Homo sapiens) (Q6ZWH5 whole entry): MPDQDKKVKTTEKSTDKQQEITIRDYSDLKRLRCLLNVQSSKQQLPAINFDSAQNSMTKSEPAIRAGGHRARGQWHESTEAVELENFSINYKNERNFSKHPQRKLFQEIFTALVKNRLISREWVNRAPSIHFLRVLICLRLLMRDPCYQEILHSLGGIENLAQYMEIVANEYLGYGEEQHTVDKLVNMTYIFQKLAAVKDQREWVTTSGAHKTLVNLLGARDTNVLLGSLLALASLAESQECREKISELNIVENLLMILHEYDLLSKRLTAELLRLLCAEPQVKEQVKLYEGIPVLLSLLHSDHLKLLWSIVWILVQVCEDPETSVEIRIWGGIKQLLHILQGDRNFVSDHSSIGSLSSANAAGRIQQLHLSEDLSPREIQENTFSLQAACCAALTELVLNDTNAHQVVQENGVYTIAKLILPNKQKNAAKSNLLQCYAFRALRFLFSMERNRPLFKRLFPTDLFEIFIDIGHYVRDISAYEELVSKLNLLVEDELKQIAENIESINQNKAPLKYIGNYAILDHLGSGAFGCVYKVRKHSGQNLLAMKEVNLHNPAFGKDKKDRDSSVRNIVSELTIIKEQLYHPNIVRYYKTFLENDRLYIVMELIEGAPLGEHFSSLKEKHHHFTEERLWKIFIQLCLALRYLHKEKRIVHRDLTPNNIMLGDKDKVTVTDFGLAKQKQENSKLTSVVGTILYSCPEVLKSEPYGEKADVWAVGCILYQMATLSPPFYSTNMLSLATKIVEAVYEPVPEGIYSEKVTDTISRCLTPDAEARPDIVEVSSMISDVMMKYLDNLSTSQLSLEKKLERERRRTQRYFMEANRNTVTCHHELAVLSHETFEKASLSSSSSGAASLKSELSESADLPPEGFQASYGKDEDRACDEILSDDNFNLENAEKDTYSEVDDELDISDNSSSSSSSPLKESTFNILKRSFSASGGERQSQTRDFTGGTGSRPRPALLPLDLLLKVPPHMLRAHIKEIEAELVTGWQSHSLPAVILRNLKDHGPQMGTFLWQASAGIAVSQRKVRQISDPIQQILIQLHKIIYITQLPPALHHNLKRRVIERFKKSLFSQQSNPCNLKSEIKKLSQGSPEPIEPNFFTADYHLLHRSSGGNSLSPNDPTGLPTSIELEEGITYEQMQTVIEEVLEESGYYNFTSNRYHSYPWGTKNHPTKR

[19] = biological target: Serine/threonine-protein kinase Nek11 (Homo sapiens) (UniProt Q8NG66); conditions: Compound concentration 1000.0 nM
[20] = biological target: Serine/threonine-protein kinase Nek6 (Homo sapiens) (UniProt Q9HC98); conditions: Compound concentration 1000.0 nM
[21] = biological target: Serine/threonine-protein kinase Nek9 (Homo sapiens) (UniProt Q8TD19); conditions: Compound concentration 1000.0 nM
Sequence of Serine/threonine-protein kinase Nek9 (Homo sapiens) (Q8TD19 whole entry): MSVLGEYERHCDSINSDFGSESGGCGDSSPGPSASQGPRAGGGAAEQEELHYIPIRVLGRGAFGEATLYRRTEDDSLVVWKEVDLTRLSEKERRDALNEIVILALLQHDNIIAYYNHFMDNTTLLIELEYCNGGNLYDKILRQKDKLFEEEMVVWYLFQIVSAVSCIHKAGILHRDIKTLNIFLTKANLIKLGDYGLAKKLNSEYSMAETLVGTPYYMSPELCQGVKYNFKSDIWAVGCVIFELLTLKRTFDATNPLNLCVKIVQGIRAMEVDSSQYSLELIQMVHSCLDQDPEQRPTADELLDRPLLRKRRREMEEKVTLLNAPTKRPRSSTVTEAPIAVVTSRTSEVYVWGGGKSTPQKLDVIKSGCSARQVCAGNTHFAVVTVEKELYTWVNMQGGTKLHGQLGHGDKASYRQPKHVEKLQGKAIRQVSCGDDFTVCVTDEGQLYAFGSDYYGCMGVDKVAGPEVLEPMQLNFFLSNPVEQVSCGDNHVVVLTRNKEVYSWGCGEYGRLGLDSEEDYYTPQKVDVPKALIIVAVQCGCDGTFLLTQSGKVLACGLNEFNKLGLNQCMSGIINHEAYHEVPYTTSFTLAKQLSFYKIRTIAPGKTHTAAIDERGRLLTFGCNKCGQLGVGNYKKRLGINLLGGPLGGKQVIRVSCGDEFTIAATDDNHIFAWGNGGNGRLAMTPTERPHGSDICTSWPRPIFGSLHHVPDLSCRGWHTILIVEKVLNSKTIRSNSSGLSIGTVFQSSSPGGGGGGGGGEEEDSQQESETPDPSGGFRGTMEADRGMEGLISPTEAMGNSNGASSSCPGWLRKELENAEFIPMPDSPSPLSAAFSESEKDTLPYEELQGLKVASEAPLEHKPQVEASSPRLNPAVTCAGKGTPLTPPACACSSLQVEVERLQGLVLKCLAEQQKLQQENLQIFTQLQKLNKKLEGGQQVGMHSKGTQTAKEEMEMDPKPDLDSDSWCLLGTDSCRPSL

[22] = biological target: Serine/threonine-protein kinase pim-2 (Homo sapiens) (UniProt Q9P1W9); conditions: Compound concentration 1000.0 nM
[23] = biological target: Phosphatidylinositol 4-phosphate 5-kinase type-1 alpha (Homo sapiens) (UniProt Q99755); conditions: Compound concentration 1000.0 nM
[24] = biological target: Protein kinase C delta type (Homo sapiens) (UniProt Q05655); conditions: Compound concentration 1000.0 nM
[25] = biological target: Protein kinase C epsilon type (Homo sapiens) (UniProt Q02156); conditions: Compound concentration 1000.0 nM
Sequence of Protein kinase C epsilon type (Homo sapiens) (Q02156 whole entry): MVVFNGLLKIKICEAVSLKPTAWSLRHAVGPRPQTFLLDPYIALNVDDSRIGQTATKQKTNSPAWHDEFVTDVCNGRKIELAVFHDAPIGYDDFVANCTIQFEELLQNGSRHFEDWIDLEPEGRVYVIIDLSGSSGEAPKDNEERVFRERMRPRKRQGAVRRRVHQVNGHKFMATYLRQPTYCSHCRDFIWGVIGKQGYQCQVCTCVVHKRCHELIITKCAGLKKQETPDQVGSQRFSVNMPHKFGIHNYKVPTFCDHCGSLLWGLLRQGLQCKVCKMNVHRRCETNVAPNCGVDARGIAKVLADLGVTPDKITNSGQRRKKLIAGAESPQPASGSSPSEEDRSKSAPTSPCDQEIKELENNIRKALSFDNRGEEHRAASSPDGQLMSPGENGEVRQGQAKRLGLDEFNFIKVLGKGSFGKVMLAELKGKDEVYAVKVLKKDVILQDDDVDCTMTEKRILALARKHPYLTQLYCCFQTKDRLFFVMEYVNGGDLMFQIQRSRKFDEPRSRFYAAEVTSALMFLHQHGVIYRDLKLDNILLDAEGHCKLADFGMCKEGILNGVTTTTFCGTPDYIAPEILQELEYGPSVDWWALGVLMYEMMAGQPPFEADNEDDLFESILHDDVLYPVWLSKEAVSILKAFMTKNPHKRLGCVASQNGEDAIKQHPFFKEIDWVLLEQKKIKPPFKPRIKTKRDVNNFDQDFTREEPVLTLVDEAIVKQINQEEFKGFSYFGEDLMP

[26] = biological target: Serine/threonine-protein kinase SIK2 (Homo sapiens) (UniProt Q9H0K1); conditions: Compound concentration 1000.0 nM
[27] = biological target: Serine/threonine-protein kinase TAO3 (Homo sapiens) (UniProt Q9H2K8); conditions: Compound concentration 1000.0 nM
[28] = biological target: TGF-beta receptor type-2 (Homo sapiens) (UniProt P37173); conditions: Compound concentration 1000.0 nM
[29] = biological target: Serine/threonine-protein kinase WNK1 (Homo sapiens) (UniProt Q9H4A3); conditions: Compound concentration 1000.0 nM
[30] = biological target: Histamine H4 receptor (Homo sapiens) (UniProt Q9H3N8); conditions: Compound concentration 10.0 uM
Sequence of Histamine H4 receptor (Homo sapiens) (Q9H3N8 whole entry): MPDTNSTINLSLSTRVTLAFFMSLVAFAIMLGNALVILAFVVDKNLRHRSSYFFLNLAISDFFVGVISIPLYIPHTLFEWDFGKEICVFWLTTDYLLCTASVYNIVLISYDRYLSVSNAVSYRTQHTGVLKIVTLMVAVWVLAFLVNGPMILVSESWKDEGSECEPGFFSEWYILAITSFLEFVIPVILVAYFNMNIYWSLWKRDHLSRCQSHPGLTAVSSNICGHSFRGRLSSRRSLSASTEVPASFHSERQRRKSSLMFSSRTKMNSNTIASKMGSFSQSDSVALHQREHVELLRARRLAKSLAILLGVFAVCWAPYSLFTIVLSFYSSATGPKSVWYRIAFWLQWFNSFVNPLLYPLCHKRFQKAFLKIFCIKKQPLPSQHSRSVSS

Rattus norvegicus = organism: Rattus norvegicus; conditions: Compound concentration 10.0 uM
[31] = biological target: Cannabinoid receptor 1 (Homo sapiens) (UniProt P21554); test: CB1 Eurofins-Panlabs selectivity data (BI); conditions: Compound concentration 10.0 uM
[32] = biological target: T1, C-C chemokine receptor type 1 (Homo sapiens) (UniProt P32246); test: CCR1 Eurofins-Panlabs selectivity data (BI)
T1 sequence (whole entry): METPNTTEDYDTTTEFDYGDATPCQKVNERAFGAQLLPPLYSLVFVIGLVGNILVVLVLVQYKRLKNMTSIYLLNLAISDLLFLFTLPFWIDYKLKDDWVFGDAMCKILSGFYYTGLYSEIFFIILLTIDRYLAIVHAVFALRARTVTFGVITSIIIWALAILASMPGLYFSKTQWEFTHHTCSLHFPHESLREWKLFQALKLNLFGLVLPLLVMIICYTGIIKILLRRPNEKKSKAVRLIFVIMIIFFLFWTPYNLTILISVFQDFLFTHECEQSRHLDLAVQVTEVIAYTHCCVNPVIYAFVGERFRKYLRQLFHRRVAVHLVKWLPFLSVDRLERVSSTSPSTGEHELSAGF

[33] = biological target: D(1A) dopamine receptor (Homo sapiens) (UniProt P21728); test: D1/HU Eurofins-Panlabs selectivity data (BI); conditions: Compound concentration 10.0 uM
[34] = biological target: Endothelin-1 receptor (Homo sapiens) (UniProt P25101); test: ETA/HU Eurofins-Panlabs selectivity data (BI); conditions: Compound concentration 10.0 uM
[35] = biological target: Gamma-aminobutyric acid type B receptor subunit 1 (Homo sapiens) (UniProt Q9UBS5); test: GABA_B1A Eurofins-Panlabs selectivity data (BI); conditions: Compound concentration 10.0 uM
[36] = biological target: Histamine H1 receptor (Homo sapiens) (UniProt P35367); test: H1/H Eurofins-Panlabs selectivity data (BI); conditions: Compound concentration 10.0 uM
[37] = biological target: Interleukin-1 receptor type 1 (Mus musculus) (UniProt P13504); test: IL-1 Eurofins-Panlabs selectivity data (BI); conditions: Compound concentration 10.0 uM
hERG (KCNH2) = hERG (KCNH2) (Homo sapiens, UniProt Q12809); test: K+/HERG Eurofins-Panlabs selectivity data (BI); conditions: compound concentration 10 uM, read-out: % Ctrl

CS(=O)(=O)NCC[C@H](NC(=O)c1cncc2c1cnn2-c1ccc(F)cc1)c1ccnc(S(C)(=O)=O)c1 [BI 9307]
residual activity [1]: 85%
residual activity [2]: 99%
residual activity [3]: 100%
residual activity [4]: 100%
residual activity [5]: 91%
residual activity [6]: 92%
residual activity [7]: 100%
residual activity [8]: 100%
residual activity [9]: 100%
residual activity [10]: 100%
residual activity [11]: 100%
residual activity [12]: 100%
residual activity [13]: 100%
residual activity [14]: 100%
residual activity [15]: 100%
residual activity [16]: 100%
residual activity [17]: 100%
residual activity [18]: 100%
residual activity [19]: 100%
residual activity [20]: 100%
residual activity [21]: 100%
residual activity [22]: 86%
residual activity [23]: 100%
residual activity [24]: 76%
residual activity [25]: 100%
residual activity [26]: 100%
residual activity [27]: 80%
residual activity [28]: 96%
residual activity [29]: 100%
inhibition [30]: -0.39%
inhibition (Rattus norvegicus): -5.04%

CS(=O)(=O)c1cc(C2(NC(=O)c3cncc4c3cnn4-c3ccc(F)cc3)CC2)ccn1 [BI 639667]
residual activity [31]: 72%
residual activity ([32]; Compound concentration 0.03 uM): 72%
residual activity ([32]; Compound concentration 0.1 uM): 52%
residual activity ([32]; Compound concentration 0.3 uM): 33%
residual activity ([32]; Compound concentration 1.0 uM): 17%
residual activity ([32]; Compound concentration 3.0 uM): 7.5%
residual activity ([32]; Compound concentration 10.0 uM): 3%
residual activity [33]: 100%
residual activity [34]: 97%
residual activity [35]: 90%
residual activity [36]: 100%
residual activity [37]: 90%
activity at 10 µM (hERG (KCNH2)): 104% (not active)
residual activity [1]: 98%
residual activity [2]: 72%
residual activity [3]: 83%
residual activity [4]: 90%
residual activity [5]: 100%
residual activity [6]: 100%
residual activity [7]: 83%
residual activity [8]: 98%
residual activity [9]: 100%
residual activity [10]: 79%
residual activity [11]: 100%
residual activity [12]: 70%
residual activity [13]: 100%
residual activity [14]: 96%
residual activity [16]: 100%
residual activity [17]: 100%
residual activity [18]: 97%
residual activity [19]: 100%
residual activity [20]: 100%
residual activity [21]: 100%
residual activity [22]: 100%
residual activity [23]: 100%
residual activity [24]: 100%
residual activity [25]: 100%
residual activity [26]: 100%
residual activity [27]: 97%
residual activity [28]: 100%
residual activity [29]: 100%
inhibition [30]: 1.36%
inhibition (Rattus norvegicus): 17.9%
